Measured values: patent publication US20240293507A1, “Methods for Enhancing Immune Checkpoint Inhibitor Therapy” (The University of Southern California, priority 2021, published 2024)
No end group written: not given here.

Assays:
[1] = tested on: MC38 mouse colon adenocarcinoma cells; assay: MC38 colon adenocarcinoma challenge, survival and rechallenge (FIG. 6-8); format: in vivo, mice; conditions: peptide in combination with anti-PD-1 monoclonal antibody
From the text: Enhancement was also found of the efficacy of anti-PD-1 therapy in a mouse colon cancer model by coadministration of a cyclic peptide as described herein. A typical protocol for identifying or characterizing effective analogs of naturally occurring cyclic peptides or effective naturally occurring cyclic peptides is shown in FIG. 6.
Mice were challenged with MC38 mouse colon adenocarcinoma cells and treated with peptide 1 (SEQ ID NO. 1), peptide 2 (SEQ ID NO. 2), or peptide 3 (SEQ ID NO. 3) alone, peptide 1 (SEQ ID NO. 1), peptide 2 (SEQ ID NO. 2), or peptide 3 (SEQ ID NO. 3) in combination with an anti-PD-1 monoclonal antibody, or with the anti-PD-1 monoclonal antibody alone.
Such combination therapy provided an effect that exceeds the summation of effects provided by anti-PD1 or the cyclic peptide as monotherapies. […] Use of cyclic peptides in combination anti-PD-1 ICI also effectively immunized mice to rechallenge with MC38 colon cancer cells. As shown in the upper panel of FIG. 8, MC38 cells formed tumors in naïve control mice.

[2] = tested on: myeloid-derived suppressor cells (MDSCs) in MC38 colon adenocarcinoma tumors; assay: MDSC infiltration into tumor microenvironment, MC38 tumors, FACS; format: in vivo, C57BL/6 mice; conditions: 4 doses cyclic peptide 0.1 mg/kg alone; tumors harvested day 13
Experimental: C57BL/6 mice were implanted subcutaneously with 5×10^6 MC38 colon adenocarcinoma cells, and subsequently treated with 4 doses of the indicated cyclic peptide (0.1 mg/kg), 4 doses of the indicated a cyclic peptide with 3 doses of an anti-PD-1 monoclonal antibody (1 mg/kg), or saline (control). Tumors were harvested at day 13 and the percent of myeloid-derived suppressor cells (MDSCs) was quantified by FACS.

peptide 3: cyclic peptide, θ-defensin analog, sequence CICRRRFCLCRRGA (not fully specified (bridges); also: cyclic, kind not given here)
survival [1]: potentiated the effect of the anti-PD-1 monoclonal antibody | percentage of MDSCs within the tumor microenvironment [2]: significant activity in reducing the percentage of MDSCs
